In patent publication US9409952B2, “Peptide-compound cyclization method” (Chugai Seiyaku Kabushiki Kaisha, priority 2011, dated 2016):
Read-outs that look alike come from different tables or passages of the source. Starred links: 1 amine or outer side, 2 acyl side, 3 side chain; linkers in the order of their positions; H or OH if unused. Positions of bridges follow the written chain, without caps; N, C: chain ends. Non-standard residues stand in square brackets, D forms with d. Residues, ends and D or L forms follow the SMILES beside them. *: point of attachment. NMeF = CN[C@@H](Cc1ccccc1)C(=O)O; NMeI = CC[C@H](C)[C@H](NC)C(=O)O; NMeβAla = CN(CCC(=O)[*:2])[*:1]; NMeL = CN[C@@H](CC(C)C)C(=O)O; NMeV = CN[C@H](C(=O)O)C(C)C; NMeA = CN[C@@H](C)C(=O)O; Piperidide = C1CCN(*)CC1; dNMeA = CN[C@H](C)C(=O)O; Sar = CNCC(=O)O; tBu = CC(C)(C)*

Legend:
[1] = PAMPA (parallel artificial membrane permeability assay); type: in vitro ADME; details: PAMPA
Outline: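 Artificial membrane was 10% (w/v) egg lecithin plus 0.5% (w/v) cholesterol in dodecane on a PVDF filter. A 10 mM DMSO stock was added at 0.5% (v/v) to donor buffer (50 mM MOPSO, pH 6.5, 5.0% glycocholic acid). After 18 h at 37 °C, LC/MS or LC/UV gave donor and acceptor levels for Pe.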

[2] = Metabolic stability in human hepatic microsome; type: in vitro ADME; details: microsomes
[3] = membrane permeation rate (Pe), 50 mM MOPSO buffer pH 6.5 with 5.0% glycocholic acid, 37° C., 18 hours, read-out: iPAMPA Pe
[4] = pH 7.4, human hepatic microsome, NADPH(+), read-out: CL NADPH(+)

Compound	Papp at 18 hours, 50 µM [1, 3] [×10⁻⁶ cm/s]	microsomal CLint at 1 uM [2, 4] [µL/min/mg]	Papp at 18 hours, 50 µM ([1]; pH 6.5) [×10⁻⁶ cm/s]	microsomal CLint at 1 uM ([2]; human, pH 7.4, CL NADPH(+)) [µL/min/mg]
CC[C@H](C)[C@@H]1NC(=O)[C@H](Cc2ccccc2)NC(=O)[C@H](Cc2ccccc2)N(C)C(=O)CCN(C)C(=O)C[C@@H](C(=O)N2CCCCC2)NC(=O)[C@H](C)NC(=O)[C@H](CC(C)C)N(C)C(=O)[C@H](CC(C)C)N(C)C(=O)CN(C)C(=O)[C@H]([C@@H](C)O)NC(=O)[C@H](C(C)C)N(C)C(=O)[C@@H]2CCCN2C1=O [DP-134] ([NMeβAla][NMeF]FIP[NMeV]T[Sar][NMeL][NMeL]AD-Piperidide; lactam N-12)	13	18		
CC[C@H](C)[C@H]1C(=O)N[C@H](C(=O)N2CCCCC2)CC(=O)N[C@H](C)C(=O)N[C@@H](Cc2ccccc2)C(=O)N(C)[C@@H](C)C(=O)N(C)[C@@H](C(C)C)C(=O)N[C@@H]([C@@H](C)O)C(=O)N(C)CC(=O)N(C)[C@@H](CC(C)C)C(=O)N[C@@H](C)C(=O)N1C [DP-135] ([dA]F[NMeA][NMeV]T[Sar][NMeL]A[NMeI]D-Piperidide; lactam N-10)	5.2	15		
CC[C@H](C)[C@@H]1NC(=O)[C@H](CC(C)C)N(C)C(=O)[C@H](C)N(C)C(=O)[C@@H](C)NC(=O)C[C@@H](C(=O)N2CCCCC2)NC(=O)[C@H](CC(C)C)N(C)C(=O)[C@H](C)N(C)C(=O)[C@H]([C@@H](C)O)NC(=O)[C@H](Cc2ccccc2)N(C)C(=O)[C@H](Cc2ccccc2)N(C)C1=O [DP-136] ([dA][NMeA][NMeL]I[NMeF][NMeF]T[NMeA][NMeL]D-Piperidide; lactam N-10)	35	147		
CC[C@H](C)[C@@H]1NC(=O)[C@H](Cc2ccccc2)NC(=O)[C@H](C(C)C)N(C)C(=O)CN(C)C(=O)C[C@@H](C(=O)N2CCCCC2)NC(=O)[C@H]([C@@H](C)O)NC(=O)[C@H](CC(C)C)N(C)C(=O)[C@H](Cc2ccccc2)NC(=O)[C@H](CC(C)C)N(C)C(=O)CNC(=O)[C@H](CC(C)C)NC(=O)[C@H](C)N(C)C1=O [DP-137] ([Sar][NMeV]FI[NMeA]LG[NMeL]F[NMeL]TD-Piperidide; lactam N-12)	32	86		
CC[C@H](C)[C@H]1C(=O)N[C@@H](COC(C)(C)C)C(=O)N[C@H](C(=O)N2CCCCC2)CC(=O)N(C)[C@@H](C)C(=O)N(C)[C@@H](Cc2ccccc2)C(=O)N(C)CC(=O)N(C)[C@@H](CC(C)C)C(=O)N[C@@H]([C@@H](C)O)C(=O)N(C)[C@@H](C)C(=O)N(C)[C@@H](CC(C)C)C(=O)N1C [DP-138] ([NMeA][NMeF][Sar][NMeL]T[NMeA][NMeL][NMeI]S(tBu)D-Piperidide; lactam N-10)	31	48		
CC(C)C[C@@H]1NC(=O)[C@@H](C)NC(=O)C[C@@H](C(=O)N2CCCCC2)NC(=O)[C@H](CC(C)C)N(C)C(=O)[C@H](C)N(C)C(=O)[C@H](CC(C)C)N(C)C(=O)[C@H](CC(C)C)N(C)C(=O)[C@H](Cc2ccccc2)N(C)C(=O)[C@H](C)NC(=O)[C@H](Cc2ccccc2)N(C)C(=O)[C@H]([C@@H](C)O)NC1=O [DP-139] ([dA]LT[NMeF]A[NMeF][NMeL][NMeL][NMeA][NMeL]D-Piperidide; lactam N-11)	23	22		
CC[C@H](C)[C@@H]1NC(=O)[C@H](C)N(C)C(=O)CCN(C)C(=O)C[C@@H](C(=O)N2CCCCC2)NC(=O)[C@H](CC(C)C)N(C)C(=O)[C@H](CC(C)C)N(C)C(=O)[C@H](C)N(C)C(=O)[C@H]([C@@H](C)O)NC(=O)[C@H](Cc2ccccc2)N(C)C(=O)[C@H](Cc2ccccc2)N(C)C1=O [DP-140] ([NMeβAla][NMeA]I[NMeF][NMeF]T[NMeA][NMeL][NMeL]D-Piperidide; lactam N-10)	61	96		
CC[C@H](C)[C@H]1C(=O)N[C@H](C(=O)N2CCCCC2)CC(=O)N(C)[C@H](C)C(=O)N[C@@H](Cc2ccccc2)C(=O)N(C)[C@@H](C)C(=O)N(C)[C@@H](CC(C)C)C(=O)N[C@@H]([C@@H](C)O)C(=O)N(C)CC(=O)N(C)[C@@H](C(C)C)C(=O)N[C@@H](C)C(=O)N1C [DP-142] ([dNMeA]F[NMeA][NMeL]T[Sar][NMeV]A[NMeI]D-Piperidide; lactam N-10)			4	22
CC(C)C[C@@H]1NC(=O)[C@H](C(C)C)N(C)C(=O)[C@H](Cc2ccccc2)NC(=O)CN(C)C(=O)[C@H]([C@@H](C)O)NC(=O)[C@H](C)N(C)C(=O)[C@H](CC(C)C)N(C)C(=O)[C@@H](C(C)C)NC(=O)C[C@@H](C(=O)N2CCCCC2)NC(=O)[C@H](C)NC(=O)[C@H](CC(C)C)N(C)C1=O [DP-143] ([dV][NMeL][NMeA]T[Sar]F[NMeV]L[NMeL]AD-Piperidide; lactam N-11)			20	25
CC[C@H](C)[C@H]1C(=O)N[C@H](C(=O)N2CCCCC2)CC(=O)N(C)[C@H](C)C(=O)N(C)[C@@H](C)C(=O)N(C)CC(=O)N(C)[C@@H](CC(C)C)C(=O)N[C@@H]([C@@H](C)O)C(=O)N(C)[C@@H](Cc2ccccc2)C(=O)N(C)[C@@H](CC(C)C)C(=O)N[C@@H](COC(C)(C)C)C(=O)N1C [DP-144] ([dNMeA][NMeA][Sar][NMeL]T[NMeF][NMeL]S(tBu)[NMeI]D-Piperidide; lactam N-10)			65	125
